# Measurements as given in patent US20260055126A1, “SMALL MOLECULE COMPOUNDS WITH PHOSPHORYLATED ARYL STRUCTURES AND USE THEREOF” (HANGZHOU PHECDAMED CO., LTD., priority 2022, published 2026).
# How the values were obtained:
# Type in all cases: binding
# Conditions in all cases: 10 μM TEAD protein, 50 μM test compound
# [1] = target: recombinant TEAD2 protein (218-447, Uniprot ID: Q15562) (Homo sapiens (Human), UniProt Q15562); assay: Thermal shift assay (protein melting point curve), TEAD2
# Experimental: (§1) The ability of the compounds to increase the melting point of purified recombinant TEAD1/2/3/4 proteins is tested using a thermal shift assay. The strength of the compound's binding to the protein and the selectivity of the compound's binding to the four TEAD subtypes are evaluated by calculating the melting point shift ΔTm−° C. […] Based on the Δ Tm value, the ability of the compound to bind to the TEAD protein is divided into four levels: ++++, +++, ++, +.
# (§2) Test method of protein melting point curve: 10 μL of the protein melting point curve experimental system (10 μM TEAD protein, 50 μM test compound, SYPRO® orange (55692, sigma)) is prepared in a 384-well fluorescence quantitative PCR plate according to the following system, and reacted at 4° C. in the dark for 20 minutes. On-machine reaction: ABI QuantStudio Dx fluorescence quantitative PCR instrument; program: from 25° C. to 80° C., increasing the temperature at a rate of 0.05° C./s, and reading the fluorescence channel signal of the corresponding wavelength of SYPRO® orange every second.
# [2] = target: recombinant TEAD3 protein (218-435, Uniprot ID: Q99594) (Homo sapiens (Human), UniProt Q99594); assay: Thermal shift assay (protein melting point curve), TEAD3
# Chain of recombinant TEAD3 protein (218-435, Uniprot ID: Q99594) (Q99594 218-435): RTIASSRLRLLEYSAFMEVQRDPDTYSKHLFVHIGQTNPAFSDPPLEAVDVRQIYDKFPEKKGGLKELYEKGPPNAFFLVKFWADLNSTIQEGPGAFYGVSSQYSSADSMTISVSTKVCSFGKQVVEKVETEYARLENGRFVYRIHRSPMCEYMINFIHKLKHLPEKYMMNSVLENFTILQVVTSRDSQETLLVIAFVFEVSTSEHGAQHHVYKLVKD
# Experimental: as §1, §2
# [3] = system: recombinant TEAD1 protein (194-411, Uniprot ID: P28347); assay: Thermal shift assay (protein melting point curve), TEAD1; parameters: key to the marks not given beside the values
# Experimental: as §1, §2
# [4] = target: recombinant TEAD4 protein (217-434, Uniprot ID: Q15561) (Homo sapiens (Human), UniProt Q15561); assay: Thermal shift assay (protein melting point curve), TEAD4
# Chain of recombinant TEAD4 protein (217-434, Uniprot ID: Q15561) (Q15561 217-434): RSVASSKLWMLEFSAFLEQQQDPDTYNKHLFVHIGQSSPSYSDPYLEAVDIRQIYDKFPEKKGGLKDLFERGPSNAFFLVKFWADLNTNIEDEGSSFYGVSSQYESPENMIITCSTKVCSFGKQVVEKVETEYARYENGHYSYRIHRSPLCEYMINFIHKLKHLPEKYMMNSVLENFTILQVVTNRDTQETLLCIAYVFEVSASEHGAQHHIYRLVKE
# Experimental: as §1, §2
# Chain of recombinant TEAD2 protein (218-447, Uniprot ID: Q15562) (Q15562 218-447): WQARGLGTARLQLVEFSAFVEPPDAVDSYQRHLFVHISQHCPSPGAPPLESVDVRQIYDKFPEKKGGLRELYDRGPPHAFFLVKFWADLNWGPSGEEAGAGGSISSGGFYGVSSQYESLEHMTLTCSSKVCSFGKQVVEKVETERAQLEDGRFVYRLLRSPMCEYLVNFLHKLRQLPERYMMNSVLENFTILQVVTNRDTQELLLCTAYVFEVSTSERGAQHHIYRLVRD
Compound,Δ T m (TEAD2) [1],Δ T m (TEAD3) [2],Δ T m (TEAD1) [3],Δ T m (TEAD4) [4]
CP(C)(=O)c1cnc(Nc2ccc(C(F)(F)F)cc2)c(-c2nccc(OC3COC3)n2)c1 [Compound 39],+,+,++++,++
CP(C)(=O)c1ccc(Nc2ccc(C(F)(F)F)cc2)c(-c2ncn(C3CCOCC3)n2)c1 [Compound 34],+,+,++,++
CP(C)(=O)c1ccc(Nc2ccc(C(F)(F)F)cc2)c(-c2cn(Cc3ccccn3)cn2)c1 [Compound 2],+,++,+++,++
CP(C)(=O)c1ccc(NCc2ccc(C(F)(F)F)cc2)c(-c2cnn(C3COC3)c2)c1 [Compound 50],++,++,++,++
Cc1nc(-c2cc(P(C)(C)=O)ccc2NCc2ccc(C(F)(F)F)cc2)no1 [Compound 5],+++,++,++++,++++
COCc1cccn(-c2cc(P(C)(C)=O)ccc2NCc2ccc(C(F)(F)F)cc2)c1=O [Compound 59],+,+,++,+
CP(C)(=O)c1ccc(NC2CCc3cc(C(F)(F)F)ccc32)c(-c2ncccn2)c1 (stereo not shown) [Compound 42],++,+,++,+
CP(C)(=O)c1ccc(NCC2CCC(C(F)(F)F)CC2)c(-c2ncccn2)c1 (stereo not shown) [Compound 46],++,++,+++,++
CP(C)(=O)c1ccc(Nc2ccc(C(F)(F)F)cc2)c(-c2nnc(NCCO)o2)c1 [Compound 12],+,+,++,+
CP(C)(=O)c1ccc(Nc2cccc(C(F)(F)F)c2)c(-c2nccc(OC3COC3)n2)c1 [Compound 13],+,+,+++,+
CP(C)(=O)c1ccc(NCc2cc(F)cc(F)c2)c(-c2ncccn2)c1 [Compound 44],++,+,++,++
CP(C)(=O)c1ccc(NC23CCC(CC2)CC3)c(-c2nccc(OC3COC3)n2)c1 [Compound 38],+,+,+++,+++
CP(C)(=O)c1ccc(Nc2cccc(OC(F)(F)F)c2)c(-c2nccc(OC3COC3)n2)c1 [Compound 67],++,+,+++,+++
O=P1(c2ccc(Nc3ccc(C(F)(F)F)cc3)c(-c3nccc(OC4COC4)n3)c2)CCNCC1 [Compound 60],+,+,+++,++
CP(C)(=O)c1ccc(NCc2ccc(C(F)(F)F)cc2)c(-c2nccc(N3CCC(O)C3)n2)c1 (stereo not shown) [Compound 54],+,+,++,++
CP(C)(=O)c1ccc(NC23CC(C(F)(F)F)(C2)C3)c(-c2nccc(OC3COC3)n2)c1 [Compound 37],++,++,++,++
CP(C)(=O)c1ccc(Nc2ccc(C(F)(F)F)cc2)c(-c2nnn(Cc3ccccn3)n2)c1 [Compound 3],+,+,+++,++
CP(C)(=O)c1ccc(Nc2ccc(C(F)(F)F)cc2)c(-c2csc(OC3COC3)n2)c1 [Compound 71],+,+,++,++
CP(C)(=O)c1ccc(Nc2ccc(C(F)(F)F)cc2)c(-c2cnn(CC3COC3)c2)c1 [Compound 16],++,++,+++,+++
CP(C)(=O)c1ccc(NCc2cccc(C(F)(F)F)c2)c(-c2nccc(OC3COC3)n2)c1 [Compound 52],++,+,++,++

Compound,Δ T m (TEAD2) [1],Δ T m (TEAD3) [2],Δ T m (TEAD1) [3],Δ T m (TEAD4) [4]
COCc1cccn(-c2cc(P(C)(C)=O)ccc2Nc2ccc(C(F)(F)F)cc2)c1=O [Compound 48],+,+,++,+
CP(C)(=O)c1ccc(Nc2ccc(C(F)(F)F)cc2)c(-c2cnn(C3CCOCC3)c2)c1 [Compound 51],++,++,++,++
CP(C)(=O)c1ccc(NCc2ccc(C(F)(F)F)cc2)c(-c2cn(C3COC3)cn2)c1 [Compound 47],+,++,+++,++
CC1OCCC1S(=O)(=O)c1csc(-c2cc(P(C)(C)=O)ccc2Nc2ccc(C(F)(F)F)cc2)n1 (stereo not shown) [Compound 23],+,+,++,+
CP(C)(=O)c1ccc(Nc2ccc(C(F)(F)F)cc2)c(-c2ncn3ccccc23)c1 [Compound 40],++,++,++,++
CP(C)(=O)c1ccc(Nc2ccc(C(F)(F)F)cc2)c(-c2nccc(OC(F)F)n2)c1 [Compound 65],++,+,+++,++
CP(C)(=O)c1ccc(OCc2ccc(C(F)(F)F)cc2)c(-c2nccc(OC3COC3)n2)c1 [Compound 20],++,++,+++,++
CP(C)(=O)c1ccc(NCc2ccc(C(F)(F)F)cc2)c(-c2ncn(C3CCOCC3)n2)c1 [Compound 55],+,+,++,++
CP(C)(=O)c1ccc(Nc2ccc(C(F)(F)F)cc2)c(-c2nnc(CO)o2)c1 [Compound 11],++,+,+++,++
Cc1nnc(-c2cc(P(C)(C)=O)ccc2NCc2ccc(C(F)(F)F)cc2)o1 [Compound 4],++,++,+++,+
CP(C)(=O)c1ccc(Nc2ccc(C(F)(F)F)cc2)c(-c2ccn(C3CCOCC3)n2)c1 [Compound 25],++,++,++,++
CP(C)(=O)c1ccc(Nc2ccc(Br)cc2)c(-c2nccc(OC3COC3)n2)c1 [Compound 26],++,+,++++,++++
Cc1nnc(-c2cc(P(C)(C)=O)ccc2Nc2ccc(C(F)(F)F)cc2)o1 [Compound 69],+,++,++,++
CP(C)(=O)c1ccc(Nc2ccc(C(F)(F)F)cc2)c(-c2cnn(C3COC3)c2)c1 [Compound 15],++,++,+++,+++
CP(C)(=O)c1ccc(Nc2ccc(C(F)(F)F)cc2)c(-c2cn(C3COC3)cn2)c1 [Compound 70],++,+,++,++
CP(C)(=O)c1ccc(Nc2ccc(C(F)(F)F)cc2)c(-c2nnc(COC3COC3)o2)c1 [Compound 57],+,+,++,+
CP(C)(=O)c1ccc(Nc2ccc(C(F)(F)F)cc2)c(-c2nccc(OC3COC3)c2C#N)c1 [Compound 36],+,+,++,+++
Cn1cnc(-c2cc(P(C)(C)=O)ccc2NC2CCC(C(F)(F)F)CC2)c1 (stereo not shown) [Compound 63],+++,+,++++,+++
CP(C)(=O)c1ccc(NCc2cc(F)cc(F)c2)c(-c2nccc(OC3COC3)n2)c1 [Compound 62],+,+,++,+
Cc1nc(-c2cc(P(C)(C)=O)ccc2NCc2cccc(C(F)(F)F)c2)no1 [Compound 49],+,++,+++,++
